Experimental data taken from PMC11044963, “Probing the CRL4^DCAF12 interactions with MAGEA3 and CCT5 di-Glu C-terminal degrons” (PNAS Nexus, 2024).
Entries after “also recorded” stand apart in the source; their conditions may differ. Where no end group is shown, it is not given here.

How the values were obtained:
[1] = molecular target: T1, biotinylated DCAF12 (Δ1–78) (Homo sapiens, UniProt Q5T6F0); test: SPR peptide binding, biotinylated DCAF12 (Δ1–78); conditions: unlabeled peptide, 15 °C, 1:1 Langmuir; for koff: dissociation phase 200 s; for koff / kon: HEPES pH 7.4, 2% DMSO, Fig. 1D, E; for kon: injected 120 s at 30 μL/min
T1 construct: DCAF12:79-453aa; His6 with linker ([…]) (C); made in house; host or cells: Sf9 cells (baculovirus, pFBD-BirA vector)
Procedure: For SPR experiments, DCAF12 Δ1–78 sequence was subcloned into pFBD-BirA vector, expressed in sf9 cells, and purified as described (Table S2). Biotinylated DCAF12 (Δ1–78) was immobilized to a level of ∼3,200 RU on a Biacore Series S streptavidin chip (Cytiva BR100531) using a Biacore 8K+ (Cytiva). Experiments were performed in a running buffer of 10 mM 4-(2-hydroxyethyl)-1-piperazineethanesulfonic acid (HEPES), pH 7.4, 150 mM NaCl (Cytiva BR-1006-70), 3 mM EDTA (Corning 46-034-CI), 0.005% P20 (Cytiva BR-1000-54), 5% Glycerol (Sigma G5516-1L), and 2% DMSO (Millipore Sigma MX1457-6). CCT5 and MAGEA3 peptides were injected over a period of 120 s at 30 μL/min followed by a dissociation phase of 200 s in an 8-point 2-fold dilution series with a top concentration of 1 μM. All steps were carried out at 15 °C. Reference and buffer-blank subtracted data were analyzed with the Biacore 8K Evaluation Software and fit to a 1:1 Langmuir model to obtain binding kinetics and KD values.

DCAF12-DDB1 = molecular target: T2, DCAF12-DDB1 (Homo sapiens, UniProt Q16531+Q5T6F0); test: FP direct peptide binding, DDB1–DCAF12 complex; conditions: for Kd range, FP direct binding: DDB1–DCAF12, FITC-labeled peptide
T2 construct: Despite our attempts to express and purify the full-length (FL) DCAF12 in isolation; made in house; host or cells: Spodoptera frugiperda Sf9 (baculovirus co-expression)
Source text: (§1) To further characterize DCAF12 binding to MAGEA3 and CCT5 degrons, we developed a fluorescence polarization (FP)-based peptide binding and displacement assay in vitro. We designed small N-terminal fluorescein isothiocyanate (FITC)-labeled peptides harboring 11 C-terminal residues of MAGEA3 ([…]) and nine from CCT5 ([…]), both carrying the known -EE degron.
(§2) DCAF12 constructs were subcloned from Mammalian Gene Collection (MGC) stock BC063823 into baculovirus expression vector pFBOH-MHL. For co-expression with DCAF12, DDB1 (MGC stock […]) and DDA1 (MGC stock BC000615) were subcloned into pFBOH-LIC vector lacking any protein tags. For testing DDB1-FL direct binding to peptides on FP assay, the protein was expressed using pFBOH-MHL vector with His-tag. All protein constructs were expressed in Spodoptera frugiperda (Sf9), as previously described ([37]).
(§3) FP-binding assays were performed using 20 mM Tris pH 7.5, 150 mM NaCl, 5% glycerol, 0.5 mM TCEP, and 0.01% Triton buffer. All tested proteins were titrated from an initial 4 µM highest concentration, followed by a factor two serial dilution. N-terminally labeled FITC peptides ([…] for MAGEA3, […] for CCT5, and […] for H3K9A) binding to proteins was tested at 20 nM final concentration. The assay was incubated for 45 min at room temperature, and plates were read using BioTek Synergy 4 (BioTek) plate reader. Prior to displacement assay, proteins at binding Kd concentration were mixed with FITC peptides at 20 nM final concentration. Displacement was evaluated by using a titration curve of unlabeled peptide, with 40 µM as the highest concentration. Buffer, incubation time, and reading conditions followed FP-binding protocol. All FP analyses were performed in triplicates and, at least, two independent experiments. All Kd and KDISP values were calculated using GraphPad Prism version 9.0.

DCAF12-DDB1-DDA1 = molecular target: T3, DCAF12-DDB1-DDA1 (Homo sapiens, UniProt Q16531+Q5T6F0+Q9BW61); test: FP direct peptide binding, DDB1–DCAF12–DDA1 complex; conditions: for Kd range, FP direct binding: DDB1–DCAF12–DDA1, FITC-labeled peptide
T3 construct: Despite our attempts to express and purify the full-length (FL) DCAF12 in isolation; made in house; host or cells: Spodoptera frugiperda Sf9 (baculovirus co-expression)
Source text: as §1, §2, §3

DCAF12 (Δ1–78) = molecular target: T4, DCAF12 (Δ1–78) (Homo sapiens, UniProt Q5T6F0); test: FP direct peptide binding, DCAF12 (Δ1–78); conditions: FITC-labeled peptide
T4 construct: DCAF12:79-453aa; His6-TEV site ([…]) (N); made in house; host or cells: Spodoptera frugiperda Sf9 (baculovirus)
Source text: as §1, §2
FP-binding assays were performed using 20 mM Tris pH 7.5, 150 mM NaCl, 5% glycerol, 0.5 mM TCEP, and 0.01% Triton buffer. […] The assay was incubated for 45 min at room temperature, and plates were read using BioTek Synergy 4 (BioTek) plate reader. […] Displacement was evaluated by using a titration curve of unlabeled peptide, with 40 µM as the highest concentration. Buffer, incubation time, and reading conditions followed FP-binding protocol. […] All Kd and KDISP values were calculated using GraphPad Prism version 9.0.

DCAF12 R203A/R244A = test: NanoBRET with -EE degrons, second DCAF12 double arginine mutant; format: cell-based, human; conditions: HEK293T cells; HT-tagged DCAF12 mutant, NL-tagged degron; vs WT
Source text: (§4) To further investigate the DCAF12 interaction with MAGEA3 and CCT5 in cells, we developed a NanoBRET assay, which measures the interaction of […] FL MEAGEA3/CCT5 or C-terminal peptide containing degron sequences ([…]/[…], respectively). When donor and acceptor proteins are in close proximity, the donor excites the acceptor, which then emits fluorescence, allowing for direct measurement of protein–protein interaction in cells.
(§5) Therefore, we used site-directed mutagenesis to generate two DCAF12 mutants in the central pocket of the WDR domain: R203A/R256A and R203A/R244A. DCAF12 wild-type (WT) and mutant interactions with MAGEA3 and CCT5 degron peptides were tested in a NanoBRET proximity-based assay (Fig. 2C).
(§6) HEK293T cells were plated in 96-well plates (2 × 10^4/well) and 4 h later transfected with 0.03 µg/well N-terminally HT-tagged DCAF12 (WT or mutants) or HT alone and 0.001 µg/well N-terminally NL-tagged CCT5 and MAGEA3 (FL or -EE degrons) using X-tremeGene HP transfection reagent (Roche), following the manufacturer's instructions. […] Four hours later, 10 µL of NanoBRET Nano-Glo Substrate solution (8 µL/mL Nano-Glo substrate (Promega) diluted in DMEM/F12 no phenol red, supplemented with 4% FBS, penicillin 100 U/mL, and streptomycin 100 µg/mL) was added, and the signal was read. […]

DCAF12 R203A/R256A = test: NanoBRET with -EE degrons, DCAF12 R203A/R256A mutant; format: cell-based, human; conditions: HEK293T cells; HT-tagged DCAF12 R203A/R256A, NL-tagged degron; vs WT
Source text: as §4, §5, §6

[2] = tested on: DCAF12 mutants K91A, K108A, R203A, R256A, R344A; test: NanoBRET with full-length proteins, DCAF12 mutants; format: cell-based, human; conditions: HEK293T cells; FL protein or degron as stated; DCAF12 mutations vs WT
Source text: Fig. 2. Conserved arginine and lysine residues near DCAF12 central channel participate in MAGEA3 binding in cells. A) DCAF12 electrostatic surface potential analysis showing negatively and positively charged residues colored in red and blue, respectively. On the left, DDB1 contacting surface of DCAF12. On the right, substrate contacting surface with positively charged residues—Arg203, Arg256, and Arg344—highlighted as sticks. Electrostatic potential is shown on a scale of −10 (red) kT/e to 10 (blue). B) Conservation analysis of DCAF12 showing high conservation of the same positively charged residues (represented as sticks) among homologous sequences. Residues were colored on a scale from variable/low conservation (dark teal) to high conservation (magenta). […]
as §6

DCAF12 = test: NanoBRET with full-length proteins, DCAF12; format: cell-based, human; conditions: HEK293T cells; FL protein
Source text: as §4
as §6, with “read. Donor emission at 450 nm (filter: 450 nm/BP 80 nm) and acceptor emission at 618 nm (filter: 610 nm/LP) were measured within 10 min of substrate addition using CLARIOstar microplate reader (Mandel).” for “read.”

Row | Substance | koff [1] | kon [1] | Kd range, FP direct binding (DCAF12-DDB1) | Kd range, FP direct binding (DCAF12-DDB1-DDA1) | Kd range, FP direct binding (DCAF12 (Δ1–78)) | effect of DCAF12 mutation on interaction with degron, NanoBRET (DCAF12 R203A/R244A) | effect of DCAF12 mutation on interaction with degron, NanoBRET (DCAF12 R203A/R256A) | other results
1 | LHEWVLREGEE [MAGEA3] | 0.06 s⁻¹ | 370000 M⁻¹ s⁻¹ | nanomolar range | nanomolar range | nanomolar range | – | – | Kd (DCAF12-DDB1-DDA1; FITC-labeled peptide 20 nM, protein 2-fold dilution from 4 µM, 20 mM Tris pH 7.5, 150 mM NaCl, 5% glycerol, 0.5 mM TCEP, 0.01% Triton, 45 min, room temperature, triplicates, at least two independent experiments): 60 nM
2 | LHEWVLREGEE [MAGEA3 degron] | – | – | – | – | – | significantly decreased | significantly decreased | –
3 | CCT5-FL: full-length T-complex protein 1 subunit epsilon protein | – | – | – | – | – | – | – | effect of DCAF12 mutations on interaction, NanoBRET [2]: no changes were observed; also recorded: little to no effect; BRET signal over negative control (DCAF12): 3.6 fold; engagement with DCAF12 in cells, NanoBRET (DCAF12): low engagement
4 | IRKPGESEE [CCT5] | 0.017 s⁻¹ | 290000 M⁻¹ s⁻¹ | nanomolar range | nanomolar range | nanomolar range | – | – | Kd ([1]; 8-point 2-fold dilution from 1 μM, 10 mM HEPES pH 7.4, 150 mM NaCl, 3 mM EDTA, 0.005% P20, 5% glycerol, 2% DMSO, Table S1): 60 nM
5 | IRKPGESEE [CCT5 degron] | – | – | – | – | – | significantly decreased | significantly decreased | –
6 | ARTKQTARASTGGK [H3K9A, reference compound] | – | – | – | – | – | – | – | FP binding of control peptide lacking -EE (DCAF12-DDB1; FITC-labeled peptide 20 nM, protein up to 4 µM, Tris pH 7.5, 45 min, room temperature, DCAF12-DDB1 complex per Fig. S2): did not show any binding
